# What was measured:
# [1] = tested on: Adult myocytes isolated from wild-type C57/B16 mouse hearts; test: Sarcomere shortening of isolated adult myocytes exposed to isoproterenol; format: cell-based
# Protein kinase G = Protein kinase G activity in 9-week TAC hearts; format: in vivo, mouse; settings: treatment during weeks 5-9
# Text: Protein kinase G activity increased nominally over time in 9-week TAC hearts, although this falls just short of statistical significance. […] Rather, the prior data supports an effect on reducing oxidant stress and re-coupling nitric oxide synthase.
# [2] = tested on: intact heart, beta-adrenergic stimulation by ISO; test: Contractility response of intact heart to isoproterenol (ISO); format: in vivo, mouse
# Text: Regulation of acute beta-adrenergic stress by PDE5a inhibition (resulting in a rise in cGMP and activation of protein kinase G) requires the activity of nitric oxide synthase (NOS). […] This can be offset by chronic distal activation of the NO target protein soluble guanylate cyclase 9sGC). At the left are bars depicting the contractility response of an intact heart to ISO before and after co-administration of SIL. The ISO response is normally blunted by nearly 80%. The middle bars show data from mice with NOS inhibited by L-NAME (1 mg/L in drinking water). […] However, if one continues to treat hearts with the soluble guanylate cyclase activator (BAY 41-8543) for a week-all the while continuing NOS inhibition with L-NAME, the ability of SIL to suppress adrenergic stimulation is restored.
compound,measurement,setting,value
"CCCc1nn(C)c2c(=O)[nH]c(-c3cc(S(=O)(=O)N4CCN(C)CC4)ccc3OCC)nc12 [Sildenafil, sildenafil]",ability to blunt the isoproterenol response,"[1]; myocytes from hypertrophied and dilated hearts (3-4 weeks TAC), p=0.04",markedly diminished
same,blunting of isoproterenol-increased sarcomere shortening,"[1]; wild-type myocytes, isoproterenol 10 micromolar, sildenafil 0.1",~25%
same,PKG activity,Protein kinase G,significantly increased
same,blunting of ISO contractility response,"[2]; intact heart, co-administration of SIL",~80%
same,inhibition of ISO response with NOS inhibited,[2]; mice given L-NAME 1 mg/L in drinking water for 1 week,no longer inhibited

# — patent US20100004248A1, “Use of a Nitric Oxide Synthase Modulator for the Treatment of Cardiac Indications” (priority 2005, published 2010)
